Reference: patent US20240285572A1 (priority 2023, published 2024)

Key:
[1] = test system: human patients having central serous chorioretinopathy (CSCR); assay: Central macular thickness by OCT in CSCR patients given isosorbide dinitrate; type: in vivo
Description: The nitric-oxide releasing agent isosorbide dinitrate was given orally at 5 mg twice per day dosage for sublingual administration for 7 days for 7 human patients (CL, WZ, XC, LL, BZ, XZ, and LS) having central serous chorioretinopathy (CSCR). Average age of the patients is 41.6 years. 5 men and 2 women were enrolled in this study.

[2] = test system: retinal blood flow; conditions: oral; glaucoma patients and diabetics; Zurakowski 1998, Weigert 2008; cited from earlier work
[3] = test system: acute central retinal artery occlusion; conditions: sublingual route; cited from earlier work

Row | Structure (SMILES) | Central macular OCT thickness, overall change ([1]; 7 human CSCR patients, 5 mg twice per day sublingual for 7 days, 7-10 days after treatment) | Subretinal fluid status after treatment ([1]; patient, eye OD) | Retinal blood flow [2] | Treatment outcome in acute central retinal artery occlusion [3]
1 | O=[N+]([O-])O[C@H]1CO[C@H]2[C@@H]1OC[C@H]2O[N+](=O)[O-] [isosorbide dinitrate, 1,4:3,6-dianhydro-2,5-di-O-nitro-D-glucitol] | generalized decrease | fluid resolved) |  | 
2 | O=[N+]([O-])OCC(CO[N+](=O)[O-])O[N+](=O)[O-] [nitroglycerin, 1,2,3-Tris(nitrooxy)propane] |  |  | retinal blood flow improves | variable success
